Measurements: patent publication US12059413B2, “Methods of inhibiting viruses using compositions targeting TSG101-ubiquitin interaction” (The Research Foundation for the State University of New York, priority 2016, dated 2024)

Assays:
[1] = biological target: T1, Tsg101 (Homo sapiens, UniProt Q99816); experiment: NWU screening / in vitro binding assay; details: Esomeprazole and tenatoprazole compared
T1 sequence (Q99816 2-145 limits assumed): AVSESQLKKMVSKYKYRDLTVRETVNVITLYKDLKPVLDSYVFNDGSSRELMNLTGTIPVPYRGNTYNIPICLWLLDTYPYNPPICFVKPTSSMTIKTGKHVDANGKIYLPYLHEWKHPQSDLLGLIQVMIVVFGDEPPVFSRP
From the text: Pantoprazole, Lansoprazole/Dexlansoprazole (dexlansoprazole is the active enantiomer of the racemic lansoprazole), and Rabeprazole were in the NWU screen but were not considered hits.

[2] = test system: HIV-1 NL4-3; experiment: Viral particle production from 293T cells transfected with pNL4-3, p24 ELISA; type: cell-based
Method: FIG. 15A-D. N16 inhibits HIV-1 NL4-3 and Gag VLP production. A) Effect on virus production. Virus particles from N16-treated 293T cells transfected with pNL4-3 as determined by ELISA assay. Top, The compound was added 6 hr prior to DNA transfection and tissue culture media was harvested 24 hr later. Bottom, The compound was added at the indicated concentration 24 hr after DNA transfection and tissue culture media was harvested 24 hr later. Assay values were normalized to that of the DMSO carrier control. B) Effect on virus infectivity. Infectious viral particles per ng p24 as determined by MAGI assay. C) Left, Electron microscopy of particles at cell surface at 24 hr post-N16 addition; Right, Quantitative analysis of budding morphologies. Cells expressing WT- or P7L-NL4-3 were exposed to DMSO carrier or 50 μM N16. Arrows indicate emerging ‘Early’ buds. D) Effects on Gag VLP production. Top, Western blot analysis. Cells treated at the indicated concentration were transfected with DNA encoding Gag-HA. At the end of the treatment period, tissue culture media was removed for VLP isolation. […] Bottom, Quantitative analysis. […]
For production of virus particles, 293T cells were transfected with pNL4-3-ΔEnv and pIIIB Env3-1 plasmids and for virus-like particles (VLP), with pCMV-Gag-HA as previously described (Watanabe et al. (2013)). For specific infectivity, media-associated p24 was determined by ELISA (Immunodiagnostics, Inc.) and equivalent amounts of p24 were used to infect HeLa-CD4+-LTR-3 gal cells for infectivity measurement by the multinuclear activation of a galactosidase indicator (MAGI) assay. […] For cell-associated Gag analysis, cell pellets were lysed with either Triton X-100 or RIPA buffer with complete mini protease inhibitor cocktail (Roche) and analyzed by Western blotting. Protein bands were visualized using an infrared-based imaging system (Odyssey, LI-COR Biotechnology) and band intensities measured using the Li-Cor Odyssey software version 2.1.15. Virus particle release efficiency was calculated [VLP signal intensity/(VLP signal intensity+cell lysate signal intensity)]. […]

[3] = test system: 293T cells; experiment: Metabolic activity, WST-1 assay, 293T cells; type: cell-based; details: Homo sapiens, HEK-293T; 293T, 24 hr in N16, WST-1; read-out: IC50 (95% confidence levels), metabolic activity
Method: FIG. 20A-C. N16 inhibition is virus-specific. A) N16 IC50 for Hela and 293T cells. […] Values were calculated by measuring metabolic activity (WST-1 Assay, Roche Applied Science) after cells were grown for 24 hr in N16. Data points represent the mean of 2 assays, 3 time points each for each cell line. […] Values in the absence or presence of N16 (50 uM) were 12% and 13%, respectively). C) N16 effect on EGF-stimulated EFGR degradation. Cells maintained for 24 hr in media containing DMSO alone or DMSO and N16 were stimulated with EGF ligand for a 90 min period and then assessed for EGFR steady-state level by Western analysis. EGFR levels for unstimulated and stimulated sample pairs are shown. A) n=2; B) n=2; C) n=2.
FIG. 27A-C. Effect of N-Acetyl Cysteine (NAC) on N16-mediated inhibition of VLP production and intracellular Gag accumulation. […] A concentration of 3 mM NAC was therefore used to test the effect of the antioxidative reagent on the N16 inhibitory effect. N16 (0, 12, 25, 50, 75, and 100 uM) was added 8.5 hr prior to transfection with pNL4-3ΔEnv. Cells were harvested 16 hr later. […] C) Quantitative analysis. n=2.
Cells were grown in 96-well trays for 24 hr with increasing levels of drug, metabolic activity was measured using WST-1colorimetric assay (Roche), and IC50 values were calculated (Prism 6, Graph Pad Software Inc.).

In the case of `COc1ccc2nc([S@@+]([O-])Cc3ncc(C)c(OC)c3C)[nH]c2c1` [F15, esomeprazole], the “binding in the in vitro binding assay” value [1] is reported as “comparable binding”.

In the case of `COc1ccc2[nH]c([S+]([O-])Cc3ncc(C)c(OC)c3C)nc2n1` (centres unmarked) [N16, tenatoprazole], the EC50 ([2]; Human immunodeficiency virus 1, NL43, HEK-293T, 6 h, N16 added six hours before transfection, 293T cells) is reported as 25 to 50 µM, the “effect on budding when added 24 hr post-transfection” value ([2]; addition at 24 hr post-transfection, even at higher concentrations) is reported as “little effect” and the “lowest concentration achieved in tissue culture assays under optimal conditions” value ([2]; c.f. FIG. 15) is reported as 25 to 50 µM. For the same compound, the IC50 [3] was 99.8 to 139 µM.
